Laboratory results taken from patent US20260151620A1, “IMPLANT MEDICAL DEVICES” (Case Western Reserve University, priority 2021, published 2026).

Experiment: In vitro drug release from drug-loaded titania nanotube arrays (TNAs) in PBS at 37° C.
Type: physicochemical
Method: A total of 500 μL of DEX solution was pipetted onto the nanotube surface (pipetting 100 μL for 5 times) and allowed to dry in fume hood for an hour, ensuring that the nanotube array surface was completely dry prior to each pipetting and the release studies. Then, DEX-loaded TNA samples were immersed in Eppendorf tubes containing 100 μL of PBS (1× phosphate buffered saline) and were placed in a water bath kept at 37° C. For release measurements, all 100 μL from each releasing sample tube was transferred to a 96-well plate and measured using a SpectraMax M 2 Microplate Reader. The absorption of DEX was measured at 244 nm. After each measurement, the releasing medium was fully replaced with […] of fresh PBS.

[1] = 37° C., TNAs on polyimide and foil substrates
[2] = 37° C., TNAs on polyimide and foil substrates, PBS

Compound	burst after contacting the PBS [1]	release profile [2]	release profile (37° C., ~0.5 μm-deep, 100 nm-diameter TNAs on polyimide)	relationship between nanotube diameter and release rate (nanotube diameters within the 30 nm-100 nm range)	difference in release data between the two drug loading methods (normal pipetting vs soaking)	duration of linear release [2]	duration of sustained release (TNA 2 micron long, 30 nm pore size, 37° C. (FIG. 6B))
C[C@@H]1C[C@H]2[C@@H]3CCC4=CC(=O)C=C[C@]4(C)[C@@]3(F)[C@@H](O)C[C@]2(C)[C@@]1(O)C(=O)COP(=O)(O)O [Dexamethasone, dexamethasone sodium phosphate]	no indication of a large burst	linear	linear	weak relationship	No significant difference	–	–
Oc1ccc(C=Cc2cc(O)cc(O)c2)cc1 [Resveratrol]	no indication of a large burst	linear	–	–	–	several weeks	nearly one month
